US20250346585A1 (Alexion Pharmaceuticals, Inc., priority 2022, published 2025)
Where two headings read alike, the source gives them in different places.

Target: Human complement C1s enzyme (Homo sapiens (Human), UniProt P09871)
Assay: Human C1s enzyme assay
Assay type: biochemical
Conditions: read-out: IC50 (Stars)
Outline: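 IC50 derived by nonlinear regression of rate versus concentration, with rate taken from A405 kinetics (30 s intervals, 30 min) after adding 100 μM each Z-L-Lys-SBzl and DTNB. C1s from human serum, 1.16 nM, exposed to compound for 5 min at RT beforehand; buffer 50 mM Tris, 1 M NaCl, pH 7.5.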

[1] = Human C1s enzyme assay of Example 3
[2] = Human complement C1s enzyme 1.16 nM, substrate Z-L-Lys-SBzl 100 μM, assay of Example 3
[3] = Human complement C1s enzyme 1.16 nM, substrate Z-L-Lys-SBzl, assay of Example 3

Human complement C1s enzyme, sequence (P09871 438-688 limits assumed): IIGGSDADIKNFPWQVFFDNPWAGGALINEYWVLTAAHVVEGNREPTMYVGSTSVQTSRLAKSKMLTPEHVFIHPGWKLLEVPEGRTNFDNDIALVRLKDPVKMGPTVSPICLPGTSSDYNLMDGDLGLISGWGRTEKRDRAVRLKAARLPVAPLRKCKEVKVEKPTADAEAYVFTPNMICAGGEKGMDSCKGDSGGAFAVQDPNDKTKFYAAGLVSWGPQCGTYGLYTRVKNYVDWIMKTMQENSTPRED
Human complement C1s enzyme, sequence (P09871 16-437 partner limits assumed): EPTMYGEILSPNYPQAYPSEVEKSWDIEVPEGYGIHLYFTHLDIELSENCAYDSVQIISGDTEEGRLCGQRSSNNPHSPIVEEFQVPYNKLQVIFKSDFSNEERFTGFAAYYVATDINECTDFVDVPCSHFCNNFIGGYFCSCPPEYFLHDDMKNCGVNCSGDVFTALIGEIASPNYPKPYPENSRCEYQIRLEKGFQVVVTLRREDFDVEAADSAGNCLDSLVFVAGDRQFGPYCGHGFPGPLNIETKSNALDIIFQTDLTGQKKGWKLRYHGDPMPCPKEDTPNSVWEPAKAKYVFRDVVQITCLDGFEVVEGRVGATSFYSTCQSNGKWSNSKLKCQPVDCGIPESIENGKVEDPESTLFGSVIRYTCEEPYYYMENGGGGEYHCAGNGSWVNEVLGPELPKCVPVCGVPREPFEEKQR

Row | IC50 [1] [nM] | Structure (SMILES) | further results
1 | < 100 | C[C@@H]1C[C@@H](C(=O)N[C@H](C)c2cc(C(=N)N)cs2)N(C(=O)CNC(=O)c2ccc3c(c2)-c2ccccc2C3(F)F)C1 [Compound 62, (2S,4R)—N—((R)-1-(4-carbamimidoylthiophen-2-yl)ethyl)-1-((9,9-difluoro-9H-fluorene-3-carbonyl)glycyl)-4-methylpyrrolidine-2-carboxamide] | 
2 | < 100 | C[C@@H](NC(=O)[C@@H]1CC2(CN1C(=O)CNC(=O)c1ccc(C(F)(F)c3ccccc3)cc1)OCCO2)c1cc(C(=N)N)cs1 [Compound 82, (S)—N—((R)-1-(4-carbamimidoylthiophen-2-yl)ethyl)-7-((4-(difluoro(phenyl)methyl)benzoyl)glycyl)-1,4-dioxa-7-azaspiro[4.4]nonane-8-carboxamide] | 
3 |  | COC[C@@]1(F)C[C@@H](C(=O)N[C@H](C)c2cc(C(=N)N)cs2)N(C(=O)CNC(=O)c2ccc3c(c2)sc2ccccc23)C1 [Compound 343, (2S,4R)—N—((R)-1-(4-carbamimidoylthiophen-2-yl)ethyl)-1-((dibenzo[b,d]thiophene-3-carbonyl)glycyl)-4-fluoro-4-(methoxymethyl)pyrrolidine-2-carboxamide] | IC50 [2]: < 100 nM
4 | < 100 | C[C@@H](NC(=O)[C@@H]1CC2(CN1C(=O)CNC(=O)c1ccc(-c3ccc(F)cc3)cc1)OCCO2)c1cc(C(=N)N)cs1 [Compound 101, (S)—N—((R)-1-(4-carbamimidoylthiophen-2-yl)ethyl)-7-((4′-fluoro-[1,1′-biphenyl]-4-carbonyl)glycyl)-1,4-dioxa-7-azaspiro[4.4]nonane-8-carboxamide] | 
5 | < 100 | Cc1ccc(Oc2ccc(C(=O)NCC(=O)N3C[C@@](F)(CF)C[C@H]3C(=O)N[C@H](C)c3cc(C(=N)N)cs3)cc2)cc1 [Compound 14, (2S,4R)—N—((R)-1-(4-carbamimidoylthiophen-2-yl)ethyl)-4-fluoro-4-(fluoromethyl)-1-((4-(p-tolyloxy)benzoyl)glycyl)pyrrolidine-2-carboxamide] | 
6 |  | N=C(N)c1csc(C(CN)NC(=O)[C@@H]2C[C@@H](OC(F)F)CN2C(=O)CNC(=O)c2ccc(Oc3ccccc3)cc2)c1 (stereo partly drawn) [Compound 314] | IC50 [2]: > 1000 nM
7 | < 100 | CC(NC(=O)[C@@H]1CC2(CN1C(=O)CNC(=O)c1ccc(-c3ccccc3)cn1)OCCO2)c1cc(C(=N)N)cs1 (stereo in doubt) [Compound 167, (S)—N—((S)-1-(4-carbamimidoylthiophen-2-yl)ethyl)-7-((5-phenylpicolinoyl)glycyl)-1,4-dioxa-7-azaspiro[4.4]nonane-8-carboxamide] | 
8 |  | C[C@@H](NC(=O)[C@@H]1C[C@]2(COCCCCN(C)C)C[C@@H]2N1C(=O)CNC(=O)c1ccc2c(c1)-c1ccccc1C2(F)F)c1cc(C(=N)N)cs1 [Compound 415, (1S,3S,5R)—N—((R)-1-(4-carbamimidoylthiophen-2-yl)ethyl)-2-((9,9-difluoro-9H-fluorene-3-carbonyl)glycyl)-5-((4-(dimethylamino)butoxy)methyl)-2-azabicyclo[3.1.0]hexane-3-carboxamide] | IC50 [3]: < 100 nM
9 | < 100 | C[C@@H](NC(=O)[C@@H]1C[C@@H](OC(F)F)CN1C(=O)CNC(=O)c1ccc(Oc2ccc(C(F)(F)F)cc2)cc1)c1cc(C(=N)N)cs1 [Compound 5, (2S,4R)—N—((R)-1-(4-carbamimidoylthiophen-2-yl)ethyl)-4-(difluoromethoxy)-1-((4-(4-(trifluoromethyl)phenoxy)benzoyl)glycyl)pyrrolidine-2-carboxamide] | 
10 |  | COC[C@@]1(F)C[C@@H](C(=O)N[C@H](C)c2cc(/C(N)=N\C(=O)OC)cs2)N(C(=O)CNC(=O)c2ccc3c(c2)-c2ccccc2C3(F)F)C1 [Compound 232, methyl ((E)-amino(5-((R)-1-((2S,4R)-1-((9,9-difluoro-9H-fluorene-3-carbonyl)glycyl)-4-fluoro-4-(methoxymethyl)pyrrolidine-2-carboxamido)ethyl)thiophen-3-yl)methylene)carbamate] | IC50 [2]: < 100 nM
11 | > 1000 | C[C@@H](NC(=O)[C@@H]1CC2(CN1C(=O)CNC(=O)c1ccc3c(c1)-c1ccccc1C3(F)F)OCCO2)c1cc(-c2nn[nH]n2)cs1 [Compound 92, (S)—N—((R)-1-(4-(2H-tetrazol-5-yl)thiophen-2-yl)ethyl)-7-((9,9-difluoro-9H-fluorene-3-carbonyl)glycyl)-1,4-dioxa-7-azaspiro[4.4]nonane-8-carboxamide] | 
12 | < 100 | C[C@@H](NC(=O)[C@@H]1C[C@@H](S(C)(=O)=O)CN1C(=O)CNC(=O)c1ccc(C(F)(F)c2ccccc2)cc1)c1cc(C(=N)N)cs1 [Compound 168, (2S,4R)—N—((R)-1-(4-carbamimidoylthiophen-2-yl)ethyl)-1-((4-(difluoro(phenyl)methyl)benzoyl)glycyl)-4-(methylsulfonyl)pyrrolidine-2-carboxamide] | 
13 | > 1000 | Nc1cccc(-c2csc(CNC(=O)[C@@H]3CC4(CN3C(=O)CNC(=O)c3ccc(Oc5ccc(F)cc5)cc3)OCCO4)c2)n1 [Compound 103, (S)—N-((4-(6-aminopyridin-2-yl)thiophen-2-yl)methyl)-7-((4-(4-fluorophenoxy)benzoyl)glycyl)-1,4-dioxa-7-azaspiro[4.4]nonane-8-carboxamide] | 
14 | < 100 | CO[C@@H]1C[C@@H](C(=O)N[C@H](C)c2cc(C(=N)N)cs2)N(C(=O)CNC(=O)c2ccc(Oc3ccc(F)cc3)cc2)C1 [Compound 70, (2S,4R)—N—((R)-1-(4-carbamimidoylthiophen-2-yl)ethyl)-1-((4-(4-fluorophenoxy)benzoyl)glycyl)-4-methoxypyrrolidine-2-carboxamide] | 
15 |  | Cc1ccc(-c2cccc(C(=O)NCC(=O)N3C[C@H](S(C)(=O)=O)C[C@H]3C(=O)N[C@H](CO)c3cc(C(=N)N)cs3)c2)cc1 [Compound 404, (2S,4R)—N—((R)-1-(4-carbamimidoylthiophen-2-yl)-2-hydroxyethyl)-1-((4′-methyl-[1,1′-biphenyl]-3-carbonyl)glycyl)-4-(methylsulfonyl) pyrrolidine-2-carboxamide] | IC50 [3]: < 100 nM
16 |  | COC[C@@]1(F)C[C@@H](C(=O)N[C@H](C)c2cc(C(=N)N)cs2)N(C(=O)CNC(=O)c2ccc3c(c2)-c2ccccc2S3(=O)=O)C1 [Compound 393, (2S,4R)—N—((R)-1-(4-carbamimidoylthiophen-2-yl)ethyl)-1-((5,5-dioxidodibenzo[b,d]thiophene-2-carbonyl)glycyl)-4-fluoro-4-(methoxymethyl) pyrrolidine-2-carboxamide] | IC50 [2]: < 100 nM
17 |  | CC1(C)c2ccccc2-c2cc(C(=O)NCC(=O)N3C[C@H](OC(F)F)C[C@H]3C(=O)N[C@H](CO)c3cc(C(=N)N)cs3)ccc21 [Compound 413, (2S,4R)—N—((R)-1-(4-carbamimidoylthiophen-2-yl)-2-hydroxyethyl)-4-(difluoromethoxy)-1-((9,9-dimethyl-9H-fluorene-3-carbonyl)glycyl) pyrrolidine-2-carboxamide] | IC50 [3]: < 100 nM
18 | < 100 | N=C(N)c1csc(CNC(=O)[C@@H]2CC3(CN2C(=O)CNC(=O)c2ccc(-c4ccccc4)cc2)OCCO3)c1 [Compound 77, (S)-7-(([1,1′-biphenyl]-4-carbonyl)glycyl)-N-((4-carbamimidoylthiophen-2-yl)methyl)-1,4-dioxa-7-azaspiro[4.4]nonane-8-carboxamide] | 
